{
  "source": "patent US11986315B2",
  "about": "“Apparatus and method for the non-invasive detection of tetrahydrocannabinol use and impairment” (CHILDREN'S NATIONAL MEDICAL CENTER, priority 2018, dated 2024)",
  "test_system": "pupillary light reflex of an individual",
  "experiment": "pupillary light reflex after inhalation of THC (pupillometry)",
  "assay_type": "in vivo",
  "description": "Following acquisition 131, primary data such as, for instance, pupillary dimensions and pupillary oscillations therefrom, can be determined for each of the plurality of video frames in the video sequence of the eye of the patient 132. […]\nPupillary oscillations and/or reactions to light, as described above, can reflect the activity of the autonomic nervous system. […] The pupillary light reflex can be evaluated via the method, and apparatus thereof, of the present disclosure, wherein higher frequency activation occurs with increased sympathetic tone and lower frequency activation occurs from increased parasympathetic tone. […]\nAccording to an embodiment, a variety of pupillometric measures can be evaluated from pupillary data following initial video sequence processing 132 such that, in combination with secondary data 134 including frequency spectra, patient response profiles can be better characterized. […] As introduced above, the baseline pupil size can be found before the flash of light and the maximally constricted size can be determined after the flash of light. […]",
  "data": [
    {"compound": "CCCCCc1cc(O)c2c(c1)OC(C)(C)[C@@H]1CCC(C)=C[C@@H]21", "note": "[THC, Δ^9-tetrahydrocannabinol]", "values": [
      {"measurement": "influence on pupillary light reflex", "setting": "cannabis-tolerant individual, 30, 60, 90, 120 and 150 minutes after inhalation of THC, FIG. 4", "value": "inhibited to varying levels"},
      {"measurement": "influence on pupillary light reflex", "setting": "individual, 30, 60, 120 and 180 minutes after inhalation of 24 mg of THC, FIG. 3", "value": "inhibited to varying levels"}
    ]}
  ]
}
